Experimental data reported in publication PMC6889535, “Validation of Plasmodium falciparum dUTPase as the target of 5′-tritylated deoxyuridine analogues with anti-malarial activity” (Malaria Journal, 2019).

Key:
[1] = molecular target: T1, HsdUTPase (Homo sapiens, UniProt P33316); experiment: Inhibition of human dUTPase (Ki); type: biochemical; details: average of three independent experiments ± standard errors
T1 construct: made in house
T1 sequence (P33316 1-164 isoform P33316-2): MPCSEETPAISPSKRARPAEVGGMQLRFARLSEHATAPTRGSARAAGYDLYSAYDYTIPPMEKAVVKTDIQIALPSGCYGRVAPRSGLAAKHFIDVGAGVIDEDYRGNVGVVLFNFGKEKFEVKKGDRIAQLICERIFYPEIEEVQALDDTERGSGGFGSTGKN
Text: Table 1 Ki values for Plasmodium and human dUTPases and IC50s for intraerythrocytic stages of Plasmodium falciparum | column: Ki HsdUTPase

[2] = molecular target: T2, PfdUTPase (Plasmodium falciparum, UniProt Q8II92); experiment: Inhibition of Plasmodium dUTPase (Ki); type: biochemical; details: for Ki: average of three independent experiments ± standard errors
T2 construct: made in house
T2 sequence (Q8II92 1-173): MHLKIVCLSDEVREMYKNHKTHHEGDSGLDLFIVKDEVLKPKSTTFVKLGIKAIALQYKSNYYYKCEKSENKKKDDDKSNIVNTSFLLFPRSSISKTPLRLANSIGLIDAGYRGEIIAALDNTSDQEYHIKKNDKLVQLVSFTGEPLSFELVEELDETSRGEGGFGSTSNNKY

[3] = system: Plasmodium falciparum 3D7; experiment: In vitro inhibitory activity against erythrocytic stages of P. falciparum (3H-hypoxanthine incorporation assay); type: cell-based; details: intraerythrocytic stages of Plasmodium falciparum; average of three independent experiments ± standard errors; read-out: IC50 Pf3D7
Method: (§1) In vitro inhibitory activity against the erythrocytic stages of P. falciparum of overexpressing mutants was determined by using the SYBR green assay and the ^3H-hypoxanthine incorporation assay was used for IC50 determination as previously described. Plasmodium falciparum 3D7 was cultured using standard methods, and synchronized using 5% sorbitol as previously described. Compounds were dissolved in DMSO and added at different concentrations (8–500 ng/ml) to 48 h post-synchronization parasites. […] Chloroquine dissolved in water was used as standard drug. Experiments were carried out at least twice independently and the different concentrations were tested in duplicate. IC50 values were calculated using a four-parameter logistic regression model using data obtained from two or three independent experiments as indicated.

[4] = system: dTTP and dUTP pools in Plasmodium cultures; experiment: Intracellular dTTP and dUTP levels by modified DNA polymerase assay; type: cell-based, Plasmodium falciparum; details: schizont stage, 20 h of treatment, 1× and 3× the IC50; effect at high concentrations
Method: The effect of different dUTPase inhibitors on dUTP and dTTP levels from P. falciparum cells was measured using a modified DNA polymerase assay. The template sequence employed was the oligonucleotide 5′-[…]-3′ and as primer sequence the oligonucleotide 5′-CCGCCTCCACCGCC-3′ was used. Saponin-isolated parasite pellets (5 × 10^8 parasites per sample) were repeatedly washed in PBS and frozen at − 80 °C. Frozen pellets were extracted with 200 μl of cold methanol/water (1:1, v/v) vigorously by vortexing, freeze-thawed twice and centrifuged. Supernatants were collected and pellets were re-extracted with the same volume of methanol/water as previously mentioned and newly centrifuged. The combined supernatants were dried under vacuum. The residues were dissolved in 40 μl either of dUTPase buffer (34 mM Tris–HCl pH 7.8, 5 mM MgCl2) or dUTPase buffer plus 30 ng of HsdUTPase and incubated for 20 min at 37 °C. To stop the reaction, 60 μl of 100% methanol were added and the samples were incubated for 1 h at − 20 °C, followed by centrifugation for 20 min at 16,000×g. The supernatants were again dried under vacuum and the DNA polymerase assay used was modified from that of Horowitz et al.. The DNA polymerase I buffer contained 34 mM Tris–HCl pH 7.8, and 50 mM MgCl2. After incubation with DNA polymerase I, 30 μl of each sample were incubated for 30 min at 4 °C with 470 μl of DNA polymerase I buffer containing 10% (v/v) trichloroacetic acid to precipitate the DNA. The solution was blotted onto a glass microfibre filter GF/C (Whatman) and each filter was washed under vacuum with 30 ml of a solution of 5% (v/v) trichloroacetic acid and 3 ml of ethanol, dried and the radioactivity was counted using a LS 6500 Multi-Purpose Scintillation Counter (Beckman Coulter).
The levels of intracellular dTTP and dUTP were measured using the DNA polymerase based assay in Plasmodium cultures incubated with compounds 3 and 4. Parasites for dUTP and dTTP measurements were obtained from highly synchronized cultures in schizont stage after 20 h of treatment with concentrations of compound that corresponded with 1× and 3× the IC50 concentration.

[5] = system: Plasmodium falciparum lines overexpressing PfdUTPase (PfdUTPase OE); experiment: IC50 shift in P. falciparum line overexpressing PfdUTPase (SYBR green assay); type: cell-based; details: PfdUTPase overexpressing line vs parental line 3D7
Method: as §1
(§2) Subsequently, the IC50 for each cell line with each compound and the fold change relative to the 3D7 IC50 was calculated (Fig. 3a). […] The IC50 for chloroquine as a reference compound was also determined in overexpressing mutants.

[6] = system: Plasmodium falciparum lines overexpressing human dUTPase (HsdUTPase OE); experiment: IC50 shift in P. falciparum line overexpressing human dUTPase (SYBR green assay); type: cell-based; details: HsdUTPase overexpressing line vs parental line 3D7
Method: as §1, §2

| Compound | Ki [1] [nM] | Ki [2] [nM] | IC50 [3] [nM] | dTTP pool [4] | dUTP pool [4] | Fold change in IC50 relative to the 3D7 IC50 [5] | Fold change in IC50 relative to the 3D7 IC50 [6] | Activity against the enzyme relative to compound 3 ([2]; PfdUTPase, compared with compound 3) |
| --- | --- | --- | --- | --- | --- | --- | --- | --- |
| 3- N-(4-(carboethoxy)butylurea)-5-tritylamino-2,3-dideoxy-β-D-xylofuranosyluracil [Compound 1] | > 100000 | 4730 ± 160 | 40 ± 10 | – | – | – | – | – |
| CCOC(=O)CCCNC(=O)NCC(CCn1ccc(=O)[nH]c1=O)CNC(c1ccccc1)(c1ccccc1)c1ccccc1 (centres unmarked) [Compound 2, Ethyl 4-(3-(4-(2,4-dioxo-3,4-dihydropyrimin-1(2H)-yl)-2-((tritylamino)methyl)butyl)uredio)butanoate] | 12200 ± 6910 | 560 ± 80 | 60 ± 10 | – | – | – | – | – |
| O=C(Nc1ccc(C(=O)O)cc1)O[C@H]1C[C@H](n2ccc(=O)[nH]c2=O)O[C@@H]1CNC(c1ccccc1)(c1ccccc1)c1ccccc1 [Compound 3, 3’-O-(4-(carboxy)phenylurethane)-5’-N-tritylamino-2’,5’-dideoxyuridine] | > 100000 | 79 ± 22 | 120 ± 50 | significant decrease | increase | 3.8 fold | 2.3 fold | – |
| CCOC(=O)c1ccc(NC(=O)NCC(CCn2ccc(=O)[nH]c2=O)CNC(c2ccccc2)(c2ccccc2)c2ccccc2)cc1 (centres unmarked) [Compound 4, Ethyl 4-(3-(4-(2,4-dioxo-3,4-dihydropyrimin-1(2H)-yl)-2-((tritylamino)methyl)butyl)uredio)benzoate] | > 100000 | 610 ± 70 | 150 ± 30 | significant decrease | increase | 4 fold | 2.5 fold | eightfold less active |
| CCN(CC)CCCC(C)Nc1ccnc2cc(Cl)ccc12 (centres unmarked) [chloroquine, Chloroquine, reference compound] | – | – | – | – | – | No significant effects | No significant effects | – |
